From patent US20100310451A1, “ALTERED N-CADHERIN PROCESSING IN TUMOR CELLS BY FURIN AND PROPROTEIN CONVERTASE 5A (PC5A)” (THE ROYAL INSTITUTION FOR THE ADVANCEMENT OF LEARN, priority 2007, published 2010)
The star is where a group is joined. Decanoyl = CCCCCCCCCC(=O)*; CH2Cl = ClC*

Columns and labels:
[1] = tested on: proprotein convertases (PCs); assay: N-cadherin proteolytic processing assay, transfected HeLa cells; assay type: cell-based; settings: HeLa cells transfected with N-cadherin +/- FL-PC5A; 50 μM dec-cmk; proN antibody
Description: (§1) To assess N-cadherin proteolytic processing, we devised an assay where N-terminal cleavage products were detected in the conditioned medium of cells using the proN antibody. Cells were transiently transfected with the appropriate construct(s), the conditioned medium was collected 36 h later, concentrated, and total protein concentration was determined using a Lowry assay (Biorad). Conditioned medium (15 μg protein) was run on a 15% gel, and cleavage products detected were as follows: a 17 kDa band corresponded to cleavage at the consensus site, and a 20 kDa band represented cleavage at the second site.

[2] = tested on: proprotein convertases (PCs); assay: N-cadherin proteolytic processing assay, transfected U251 and U343 glioma cells; assay type: cell-based, human; settings: U251 and U343 cells transfected with N-cadherin; dec-cmk in culture medium
Description: as §1

[3] = tested on: PC5A; assay: PC5A cell surface localization, FL-PC5A transfected HeLa cells; assay type: cell-based; settings: HeLa cells transfected with FL-PC5A; heparin added to culture medium; non-permeabilizing
Description: (§2) Live-cell staining was carried out by incubating cells plated on coverslips with primary antibody diluted in medium without serum at 4° C. for 1 h. The cells were washed with PBS and fixed in 4% paraformaldehyde. Following washes with PBS, cells were incubated with fluorescent-conjugated secondary antibody diluted in 1% BSA, 0.02% TritonX, PBS, for 40 min at room temperature. Coverslips were then mounted and examined as above. For surface PC5A staining, cells were washed twice with ice-cold PBS, fixed with freshly prepared 3.7% paraformaldehyde for 10 min on ice, washed 3 times with PBS, incubated in 150 mM glycine for 5 min, washed once with PBS, blocked for 30 min in 1% BSA, incubated in primary antibody overnight at 4° C., washed 4 times with PBS, incubated with secondary antibody for 40 min at room temperature, and washed 4 times with PBS. Coverslips were mounted and examined as above.

[4] = tested on: PC5A; assay: Endogenous PC5A cell surface localization, glioma cells; assay type: cell-based, human; settings: U251 and U343 cells; heparin added to the cells
Description: as §2

Substance	N-cadherin cleavage products in conditioned medium [1]	N-cadherin cleavage products in conditioned medium [2]	PC5A detection on the cell surface [3]	PC5A detection at the cell surface [4]
Decanoyl-Arg-Val-Lys-Arg-chloromethylketone (Decanoyl-RVKR-CH2Cl) [dec-cmk]	no cleavage products detected	no cleavage products detected		
heparin			not detected	not detected
